Test results as given in PubChem BioAssay (NCI).
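48-hour exposure; five concentrations; linearly interpolated endpoints. TGI is the concentration that stops growth completely.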

Experiments:
Assay in all cases: DTP human tumour cell line panel, 48 h
CAKI-1 renal = system: CAKI-1 renal
SNB-75 CNS = system: SNB-75 CNS
A498 renal = system: A498 renal
SR leukemia = system: SR leukemia
HL-60(TB) leukemia = system: HL-60(TB) leukemia
ACHN renal = system: ACHN renal
SK-OV-3 ovarian = system: SK-OV-3 ovarian
SF-295 CNS = system: SF-295 CNS
SNB-19 CNS = system: SNB-19 CNS
A549 NSCLC = system: A549 NSCLC
SK-MEL-5 melanoma = system: SK-MEL-5 melanoma
OVCAR-4 ovarian = system: OVCAR-4 ovarian
NCI-H460 lung = system: NCI-H460 lung
MDA-MB-435 = system: MDA-MB-435
SF-268 CNS = system: SF-268 CNS
DU-145 prostate = system: DU-145 prostate
786-0 renal = system: 786-0 renal
CCRF-CEM leukemia = system: CCRF-CEM leukemia
UO-31 renal = system: UO-31 renal
COLO 205 colon = system: COLO 205 colon
HT29 colon = system: HT29 colon
K-562 leukemia = system: K-562 leukemia
UACC-62 melanoma = system: UACC-62 melanoma
MDA-MB-231 breast = system: MDA-MB-231 breast
RPMI-8226 leukemia = system: RPMI-8226 leukemia
T-47D breast = system: T-47D breast
SK-MEL-2 melanoma = system: SK-MEL-2 melanoma
PC-3 prostate = system: PC-3 prostate
HCC-2998 colon = system: HCC-2998 colon
SN12C renal = system: SN12C renal
OVCAR-8 ovarian = system: OVCAR-8 ovarian
NCI-H226 lung = system: NCI-H226 lung
SK-MEL-28 melanoma = system: SK-MEL-28 melanoma
MCF7 breast = system: MCF7 breast
NCI-H23 lung = system: NCI-H23 lung
IGROV1 ovarian = system: IGROV1 ovarian
TK-10 renal = system: TK-10 renal
U251 CNS = system: U251 CNS
SW-620 colon = system: SW-620 colon
EKVX NSCLC = system: EKVX NSCLC
HOP-62 NSCLC = system: HOP-62 NSCLC
KM12 colon = system: KM12 colon
HCT-15 colon = system: HCT-15 colon
NCI/ADR-RES ovarian = system: NCI/ADR-RES ovarian
M14 melanoma = system: M14 melanoma
OVCAR-5 ovarian = system: OVCAR-5 ovarian
MOLT-4 leukemia = system: MOLT-4 leukemia
MDA-N = system: MDA-N
MALME-3M melanoma = system: MALME-3M melanoma
LOX IMVI melanoma = system: LOX IMVI melanoma
UACC-257 melanoma = system: UACC-257 melanoma

O=C(/C=C/c1cccs1)c1ccsc1
TGI (CAKI-1 renal): > 100 µM
TGI (SNB-75 CNS): 89 µM
TGI (A498 renal): > 100 µM
TGI (SR leukemia): 38.5 µM
TGI (HL-60(TB) leukemia): 42.1 µM
TGI (ACHN renal): 42.6 µM
TGI (SK-OV-3 ovarian): > 100 µM
TGI (SF-295 CNS): > 100 µM
TGI (SNB-19 CNS): 50.8 µM
TGI (A549 NSCLC): > 100 µM
TGI (SK-MEL-5 melanoma): 36 µM
TGI (OVCAR-4 ovarian): > 100 µM
TGI (NCI-H460 lung): 60.4 µM
TGI (MDA-MB-435): 39.8 µM
TGI (SF-268 CNS): > 100 µM
TGI (DU-145 prostate): > 100 µM
TGI (786-0 renal): > 100 µM
TGI (CCRF-CEM leukemia): 45.5 µM
TGI (UO-31 renal): 32.4 µM
TGI (COLO 205 colon): 38 µM
TGI (HT29 colon): 41.7 µM
TGI (K-562 leukemia): 89.8 µM
TGI (UACC-62 melanoma): 38.5 µM
TGI (MDA-MB-231 breast): > 10 µM
TGI (RPMI-8226 leukemia): 45.4 µM
TGI (T-47D breast): 72 µM
TGI (SK-MEL-2 melanoma): > 100 µM
TGI (PC-3 prostate): 59.1 µM
TGI (HCC-2998 colon): 34.9 µM
TGI (SN12C renal): 52.6 µM
TGI (OVCAR-8 ovarian): 96.5 µM
TGI (NCI-H226 lung): 48.5 µM
TGI (SK-MEL-28 melanoma): 81.7 µM
TGI (MCF7 breast): > 100 µM
TGI (NCI-H23 lung): 57.6 µM
TGI (IGROV1 ovarian): 73.6 µM
TGI (TK-10 renal): 97.6 µM
TGI (U251 CNS): > 10 µM
TGI (SW-620 colon): 75.2 µM
TGI (EKVX NSCLC): > 100 µM
TGI (HOP-62 NSCLC): > 100 µM
TGI (KM12 colon): > 10 µM
TGI (HCT-15 colon): 40.5 µM
TGI (NCI/ADR-RES ovarian): > 100 µM
TGI (M14 melanoma): > 100 µM
TGI (OVCAR-5 ovarian): > 100 µM
TGI (MOLT-4 leukemia): 40.6 µM
TGI (MDA-N): 36.3 µM
TGI (MALME-3M melanoma): 59 µM
TGI (LOX IMVI melanoma): 35.1 µM
TGI (UACC-257 melanoma): 52.3 µM
